Data as given in patent publication US20190297890A1, “FUNGICIDAL COMPOUNDS AND MIXTURES FOR FUNGAL CONTROL IN CEREALS” (Dow AgroSciences LLC, priority 2016, published 2019).

Test system: Zymoseptoria tritici (SEPTTR)
Assay: Field assessment of Zymoseptoria tritici (SEPTTR) in wheat, three field trials
Format: in vivo, Zymoseptoria tritici on winter wheat (TRZAW)
Conditions: average over 3 field trials
Description: Treatments consisted of the compound of Formula I and chlorothalonil either using individually or as a two-way mixture with the compound of Formula I. The compound of Formula I was applied with Agnique BP-420 (50% w/w at 0.3% v/v) at 75 and 150 g ai/ha and chlorothalonil (Bravo 500) was applied at 375 and 500 g ai/ha. Commercial standards used in the studies were Fluxapyroxad (Imtrex), applied at 100 g ai/ha, and Metconazole+Fluxapyroxad (Librax), applied at 161 g ai/ha.
Field Assessment of Zymoseptoria tritici (SEPTTR) in Wheat:
Fungicidal treatments containing the compound of Formula I and chlorothalonil, either individually or as a two way mixture, were assessed against leaf spot of wheat (SEPTTR) in three separate field trials. In the first trial, fungicidal treatments were applied at BBBCH37 (curative, 3% infection at application on L3) growth stage of winter wheat (TRZAW, Dinosor variety) under naturally occurring infection with SEPTTR. The treatments were part of an experimental trial designed as a randomized complete block with four replications and a plot of approximately 1×6 m. Treatments were applied at water volume of 200 L/ha, using a backpack plot sprayer (BKPCKENG, FLATFANA nozzle) and pressurized at 200 kPa.
In the second trial, fungicidal treatments were applied twice at BBCH32 (curative, 25% infection at application on L5) and BBBCH37-39 (5% infection at application on L3) growth stages of winter wheat (TRZAW, Consort variety) under naturally occurring infection with SEPTTR. The treatments were part of an experimental trial designed as a randomized complete block with four replications and a plot of approximately 1×2 m. Treatments were applied at water volume of 200 L/ha, using a backpack plot sprayer (BKPCKAIR, Flat fan nozzle) and pressurized at 210 kPa.
In the final trial, fungicidal treatments were applied twice at BBCH32 (protective, 15% infection at application on L6) and BBBCH37-39 (12% infection at application on L5) growth stages of winter wheat (TRZAW, Smaragd variety) under naturally occurring infection with SEPTTR. […]
Disease severity (percentage of visual diseased foliage on whole plot or leaves) in […] was recorded following EPPO PP1/26 guideline prescriptions. Area under the disease progress curve (AUDPC) was calculated for each plot in both trials using the sets of recorded severity data. Relative AUDPC (% control based on AUDPC) was calculated as percent of the nontreated control. Final results for the control of leaf spot of wheat by the compound of Formula I, chlorothalonil, and mixtures are reported as an average of the relative AUDPC calculated over all three field trials. […]

N#Cc1c(Cl)c(Cl)c(Cl)c(C#N)c1Cl [Chlorothalonil, tetrachloroisophthal-onitrile]
SEPTTR % Control based on AUDPC (375 g ai/ha): 31.8%
SEPTTR % Control based on AUDPC (500 g ai/ha): 37.8%

N#Cc1ccc(Oc2ccc(C(F)(F)C(O)(Cn3nc[nH]c3=S)c3ccc(F)cc3F)nc2)cc1 (stereo not shown) [Compound I, 4-((6-(2-(2,4-difluorophenyl)-1,1-difluoro-2-hydroxy-3-(5-thioxo-4,5-dihydro-1H-1,2,4-triazol-1-yl)propyl)pyridin-3-yl)oxy)benzonitrile]
SEPTTR % Control based on AUDPC (75 g ai/ha, with Agnique BP-420 (50% w/w at 0.3% v/v)): 61.2%
SEPTTR % Control based on AUDPC (150 g ai/ha, with Agnique BP-420 (50% w/w at 0.3% v/v)): 72.2%
